Reference: patent US20160324796A1, “COMPOSITIONS AND THEIR USE TO TREAT COMPLICATIONS OF ANEURYSMAL SUBARACHNOID HEMMORRHAGE” (Edge Therapeutics, Inc., priority 2007, published 2016)
Like-named read-outs stand apart in the source and are kept apart here.

How the values were obtained:
[1] = cited from earlier work
[2] = cited from earlier work; remark: listed apart in the source
[3] = mongrel, dog, in vivo
Source text: (§1) On days 8 and 15, the animals were anesthetized, and angiography, removal of CSF from the cistern magna and collection of plasma, were repeated. Other endpoints included daily blood pressure measurements, behavior assessment, and brain and spinal cord pathology. Animals were euthanized under anesthesia on day 28 or 49, perfused with PBS and then neutral buffered formalin, and the brains subjected to histological analysis.
The animals are grouped according to whether the animals died or were euthanized at an unscheduled time (DOS) or underwent scheduled necropsy (SNC).

[4] = Plasma nimodipine after single subcutaneous injection of nimodipine PLGA microparticles; type: in vivo, Wistar rats; settings: rats, up to day 15
Description: The rats were divided into separate treatment groups: one control group for treatment with a nimodipine reference solution (control group) and several test groups for treatment with exemplary nimodipine formulations (microparticle test group) according to the described invention. […] The test article was reconstituted with an injection vehicle volume of 0.15 or 0.70 ml, and the entire volume of each reconstituted vial was drawn up immediately and administered individually to each animal. Blood samples were collected from two alternating cohorts of 2 or 3 animals per cohort in the microparticle formulation-injected groups. Collection was immediately before injection and then 1, 12, and 24 hours post dose, and on days 4, 8, 11, and 15. After the last blood sample collection interval, the surviving animals were euthanized via carbon dioxide inhalation. Euthanasia was confirmed by cervical dislocation and anesthesia.

[5] = Rats, Male, cited from earlier work
[6] = Preclinical Study 2: CSF (cisterna magna) concentration of nimodipine; type: in vivo, mongrel dogs; settings: oral nimodipine 0.86 mg/kg six times per day
Source text: as §1
Values are means±standard error of the mean (n=8 per measurement).

[7] = Mice, Male, cited from earlier work

COCCOC(=O)C1=C(C)NC(C)=C(C(=O)OC(C)C)C1c1cccc([N+](=O)[O-])c1 (stereo not shown) [nimodipine, Isopropyl 2-methoxyethyl 1,4-dihydro-2,6-dimethyl-4-(m-nitrophenyl)-3,5-pyridinedicarboxylate]
LD50 ([1]; Rabbits, Female, Intravenous): 2.5 mg/kg | LD50 ([1]; female, rabbit, in vivo, po): 5000 mg/kg | LD50 ([2]; Dogs, Male and female, Intravenous): 4 mg/kg | LD50 ([2]; both, dog, in vivo, po): 1000 to 2000 mg/kg | Brain discoloration, red, # of animals ([3]; female, 28 d): 0 | Brain focus/foci, red, # of animals ([3]; female, 28 d): 0 | Brain nodule, # of animals ([3]; female, 28 d): 0 | Brain: chromatolysis, central, neuronal; minimal ([3]; female, 28 d): 0 | Brain: degeneration, axonal/myelin; mild ([3]; female, 28 d): 0 | Brain: degeneration, axonal/myelin; minimal ([3]; female, 28 d): 0 | Brain: degeneration; mild ([3]; female, 28 d): 0 | Brain: degeneration; minimal ([3]; female, 28 d): 0 | Brain: fibroplasia; mild ([3]; female, 28 d): 0 | Brain: fibroplasia; minimal ([3]; female, 28 d): 0 | Brain: granulation tissue; mild ([3]; female, 28 d): 0 | Brain: granulation tissue; minimal ([3]; female, 28 d): 0 | Brain: hemorrhage; minimal ([3]; female, 28 d): 0 | Brain: hemorrhage; moderate ([3]; female, 28 d): 0 | Brain: inflammation, granulomous; minimal ([3]; female, 28 d): 0 | Brain: inflammation, meningeal; minimal ([3]; female, 28 d): 0 | Brain: inflammation, subacute/chronic; mild ([3]; female, 28 d): 0 | Brain: macrophages, pigmented; mild ([3]; female, 28 d): 0 | Brain: macrophages, pigmented; minimal ([3]; female, 28 d): 0 | Brain: mineralization focal; minimal ([3]; female, 28 d): 0 | Brain: neovascularization; minimal ([3]; female, 28 d): 0 | Brain: within normal limits ([3]; female, 28 d): 0 | Spinal Cord, Cervical: degeneration, axonal/myelin; minimal ([3]; female, 28 d): 0 | Spinal Cord, Cervical: fibroplasia; minimal ([3]; female, 28 d): 0 | Spinal Cord, Cervical: fibroplasia; moderate ([3]; female, 28 d): 0 | Spinal Cord, Cervical: inflammation, granulomatous; minimal ([3]; female, 28 d): 0 | Spinal Cord, Cervical: inflammation, subacute/chronic; mild ([3]; female, 28 d): 0 | Spinal Cord, Cervical: macrophages, pigmented; minimal ([3]; female, 28 d): 0 | Spinal Cord, Cervical: within normal limits ([3]; female, 28 d): 0 | Spinal Cord, Lumbar: fibroplasia; minimal ([3]; female, 28 d): 0 | Spinal Cord, Lumbar: hemorrhage; minimal ([3]; female, 28 d): 0 | Spinal Cord, Lumbar: mineralization; minimal ([3]; female, 28 d): 0 | Spinal Cord, Lumbar: within normal limits ([3]; female, 28 d): 0 | Spinal Cord, Thoracic: fibroplasia; minimal ([3]; female, 28 d): 0 | Spinal Cord, Thoracic: hemorrhage; minimal ([3]; female, 28 d): 0 | Spinal Cord, Thoracic: inflammation, granulomatous; minimal ([3]; female, 28 d): 0 | Spinal Cord, Thoracic: inflammation, subacute/chronic; minimal ([3]; female, 28 d): 0 | Spinal Cord, Thoracic: macrophages, pigmented; minimal ([3]; female, 28 d): 0 | Spinal Cord, Thoracic: within normal limits ([3]; female, 28 d): 0 | Brain discoloration, red, # of animals ([3]; female, 49 d): 0 | Brain focus/foci, red, # of animals ([3]; female, 49 d): 0 | Brain nodule, # of animals ([3]; female, 49 d): 0 | Brain: chromatolysis, central, neuronal; minimal ([3]; female, 49 d): 0 | Brain: degeneration, axonal/myelin; mild ([3]; female, 49 d): 0 | Brain: degeneration, axonal/myelin; minimal ([3]; female, 49 d): 0 | Brain: degeneration; mild ([3]; female, 49 d): 0 | Brain: fibroplasia; mild ([3]; female, 49 d): 0 | Brain: fibroplasia; minimal ([3]; female, 49 d): 0 | Brain: granulation tissue; mild ([3]; female, 49 d): 0 | Brain: granulation tissue; minimal ([3]; female, 49 d): 0 | Brain: hemorrhage; mild ([3]; female, 49 d): 0 | Brain: hemorrhage; minimal ([3]; female, 49 d): 0 | Brain: hemorrhage; moderate ([3]; female, 49 d): 0 | Brain: infiltration, lymphoid, perivascular; minimal ([3]; female, 49 d): 0 | Brain: inflammation, granulomous; mild ([3]; female, 49 d): 0 | Brain: inflammation, granulomous; minimal ([3]; female, 49 d): 0 | Brain: inflammation, meningeal; minimal ([3]; female, 49 d): 0 | Brain: inflammation, subacute/chronic; mild ([3]; female, 49 d): 0 | Brain: macrophages, pigmented; mild ([3]; female, 49 d): 0 | Brain: macrophages, pigmented; minimal ([3]; female, 49 d): 0 | Brain: mineralization focal; minimal ([3]; female, 49 d): 0 | Brain: neovascularization; minimal ([3]; female, 49 d): 0 | Brain: within normal limits ([3]; female, 49 d): 0 | Spinal Cord, Cervical: degeneration, axonal/myelin; minimal ([3]; female, 49 d): 0 | Spinal Cord, Cervical: fibroplasia; mild ([3]; female, 49 d): 0 | Spinal Cord, Cervical: fibroplasia; minimal ([3]; female, 49 d): 0 | Spinal Cord, Cervical: fibroplasia; moderate ([3]; female, 49 d): 0 | Spinal Cord, Cervical: hemorrhage; minimal ([3]; female, 49 d): 0 | Spinal Cord, Cervical: inflammation, granulomatous; minimal ([3]; female, 49 d): 0 | Spinal Cord, Cervical: inflammation, granulomatous; moderate ([3]; female, 49 d): 0 | Spinal Cord, Cervical: inflammation, subacute/chronic; mild ([3]; female, 49 d): 0 | Spinal Cord, Cervical: macrophages, pigmented; minimal ([3]; female, 49 d): 0 | Spinal Cord, Cervical: within normal limits ([3]; female, 49 d): 0 | Spinal Cord, Lumbar: fibroplasia; minimal ([3]; female, 49 d): 0 | Spinal Cord, Lumbar: hemorrhage; minimal ([3]; female, 49 d): 0 | Spinal Cord, Lumbar: mineralization; minimal ([3]; female, 49 d): 0 | Spinal Cord, Lumbar: within normal limits ([3]; female, 49 d): 0 | Spinal Cord, Thoracic: fibroplasia; minimal ([3]; female, 49 d): 0 | Spinal Cord, Thoracic: hemorrhage; minimal ([3]; female, 49 d): 0 | Spinal Cord, Thoracic: inflammation, granulomatous; minimal ([3]; female, 49 d): 0 | Spinal Cord, Thoracic: inflammation, subacute/chronic; minimal ([3]; female, 49 d): 0 | Spinal Cord, Thoracic: macrophages, pigmented; minimal ([3]; female, 49 d): 0 | Spinal Cord, Thoracic: within normal limits ([3]; female, 49 d): 0 | Brain discoloration, red, # of animals ([3]; male, 28 d): 0 | Brain focus/foci, red, # of animals ([3]; male, 28 d): 0 | Brain nodule, # of animals ([3]; male, 28 d): 0 | Brain: chromatolysis, central, neuronal; minimal ([3]; male, 28 d): 0 | Brain: degeneration, axonal/myelin; mild ([3]; male, 28 d): 0 | Brain: degeneration, axonal/myelin; minimal ([3]; male, 28 d): 0 | Brain: degeneration; mild ([3]; male, 28 d): 0 | Brain: degeneration; minimal ([3]; male, 28 d): 0 | Brain: granulation tissue; mild ([3]; male, 28 d): 0 | Brain: granulation tissue; minimal ([3]; male, 28 d): 0 | Brain: hemorrhage; mild ([3]; male, 28 d): 0 | Brain: hemorrhage; minimal ([3]; male, 28 d): 0 | Brain: hemorrhage; moderate ([3]; male, 28 d): 0 | Brain: infiltration, lymphoid, perivascular; minimal ([3]; male, 28 d): 0 | Brain: inflammation, meningeal; minimal ([3]; male, 28 d): 0 | Brain: inflammation, subacute/chronic; mild ([3]; male, 28 d): 0 | Brain: inflammation, subacute/chronic; minimal ([3]; male, 28 d): 0 | Brain: macrophages, pigmented; minimal ([3]; male, 28 d): 0 | Brain: mineralization focal; minimal ([3]; male, 28 d): 0 | Brain: neovascularization; minimal ([3]; male, 28 d): 0 | Brain: within normal limits ([3]; male, 28 d): 0 | Spinal Cord, Cervical: degeneration, axonal/myelin; minimal ([3]; male, 28 d): 0 | Spinal Cord, Cervical: fibroplasia; minimal ([3]; male, 28 d): 0 | Spinal Cord, Cervical: inflammation, granulomatous; moderate ([3]; male, 28 d): 0 | Spinal Cord, Cervical: within normal limits ([3]; male, 28 d): 0 | Spinal Cord, Lumbar: fibroplasia; minimal ([3]; male, 28 d): 0 | Spinal Cord, Lumbar: hemorrhage; minimal ([3]; male, 28 d): 0 | Spinal Cord, Lumbar: mineralization; minimal ([3]; male, 28 d): 0 | Spinal Cord, Lumbar: within normal limits ([3]; male, 28 d): 0 | Spinal Cord, Thoracic: fibroplasia; minimal ([3]; male, 28 d): 0 | Spinal Cord, Thoracic: hemorrhage; minimal ([3]; male, 28 d): 0 | Spinal Cord, Thoracic: inflammation, granulomatous; minimal ([3]; male, 28 d): 0 | Spinal Cord, Thoracic: inflammation, subacute/chronic; minimal ([3]; male, 28 d): 0 | Spinal Cord, Thoracic: macrophages, pigmented; minimal ([3]; male, 28 d): 0 | Spinal Cord, Thoracic: within normal limits ([3]; male, 28 d): 0 | Brain discoloration, red, # of animals ([3]; male, 49 d): 0 | Brain focus/foci, red, # of animals ([3]; male, 49 d): 0 | Brain nodule, # of animals ([3]; male, 49 d): 0 | Brain: chromatolysis, central, neuronal; minimal ([3]; male, 49 d): 0 | Brain: degeneration, axonal/myelin; mild ([3]; male, 49 d): 0 | Brain: degeneration, axonal/myelin; minimal ([3]; male, 49 d): 0 | Brain: degeneration; mild ([3]; male, 49 d): 0 | Brain: degeneration; minimal ([3]; male, 49 d): 0 | Brain: fibroplasia; minimal ([3]; male, 49 d): 0 | Brain: granulation tissue; mild ([3]; male, 49 d): 0 | Brain: granulation tissue; minimal ([3]; male, 49 d): 0 | Brain: hemorrhage; mild ([3]; male, 49 d): 0 | Brain: hemorrhage; minimal ([3]; male, 49 d): 0 | Brain: hemorrhage; moderate ([3]; male, 49 d): 0 | Brain: infiltration, lymphoid, perivascular; minimal ([3]; male, 49 d): 0 | Brain: inflammation, granulomous; mild ([3]; male, 49 d): 0 | Brain: inflammation, meningeal; minimal ([3]; male, 49 d): 0 | Brain: inflammation, subacute/chronic; mild ([3]; male, 49 d): 0 | Brain: macrophages, pigmented; mild ([3]; male, 49 d): 0 | Brain: macrophages, pigmented; minimal ([3]; male, 49 d): 0 | Brain: mineralization focal; minimal ([3]; male, 49 d): 0 | Brain: neovascularization; minimal ([3]; male, 49 d): 0 | Brain: within normal limits ([3]; male, 49 d): 0 | Spinal Cord, Cervical: degeneration, axonal/myelin; minimal ([3]; male, 49 d): 0 | Spinal Cord, Cervical: fibroplasia; minimal ([3]; male, 49 d): 0 | Spinal Cord, Cervical: fibroplasia; moderate ([3]; male, 49 d): 0 | Spinal Cord, Cervical: hemorrhage; minimal ([3]; male, 49 d): 0 | Spinal Cord, Cervical: inflammation, granulomatous; minimal ([3]; male, 49 d): 0 | Spinal Cord, Cervical: inflammation, granulomatous; moderate ([3]; male, 49 d): 0 | Spinal Cord, Cervical: inflammation, subacute/chronic; mild ([3]; male, 49 d): 0 | Spinal Cord, Cervical: macrophages, pigmented; minimal ([3]; male, 49 d): 0 | Spinal Cord, Lumbar: fibroplasia; minimal ([3]; male, 49 d): 0 | Spinal Cord, Lumbar: hemorrhage; minimal ([3]; male, 49 d): 0 | Spinal Cord, Lumbar: mineralization; minimal ([3]; male, 49 d): 0 | Spinal Cord, Lumbar: within normal limits ([3]; male, 49 d): 0 | Spinal Cord, Thoracic: fibroplasia; minimal ([3]; male, 49 d): 0 | Spinal Cord, Thoracic: hemorrhage; minimal ([3]; male, 49 d): 0 | Spinal Cord, Thoracic: inflammation, granulomatous; minimal ([3]; male, 49 d): 0 | Spinal Cord, Thoracic: inflammation, subacute/chronic; minimal ([3]; male, 49 d): 0 | Spinal Cord, Thoracic: macrophages, pigmented; minimal ([3]; male, 49 d): 0 | Spinal Cord, Thoracic: within normal limits ([3]; male, 49 d): 0 | plasma nimodipine concentrations over time [4]: sustained release of nimodipine over time | LD50 ([5]; Intravenous): 16 mg/kg | LD50 ([5]; Oral): 6599 mg/kg | CSF nimodipine concentrations [6]: low or undetectable | LD50 ([7]; Intravenous): 33 mg/kg | LD50 ([7]; Oral): 3562 mg/kg
